Reference: patent publication US6444870B1, “Methods for assessing the role of calcineurin immunosuppression and neurotoxicity” (President and Fellows of Harvard College, priority 1995, dated 2002)

Experiments:
[1] = system: calcineurin; assay: Calcineurin phosphatase assay in T cell extracts (okadaic acid resistant, EGTA-sensitive phosphatase activity); type: biochemical, mouse
Experimental: Spleen and lymph nodes were harvested from wild type and mutant mice and were dispersed into single cell suspension. Red blood cells were removed by lysis. The final concentrations were adjusted to 1.5-2.0×10^8 cells suspended in 2 ml of PBS containing 5% fetal calf serum and 4 mM EDTA. The cell suspensions were enriched for T cells using Mouse T Cell Enrichment Column (R&D Systems). T cells were then lysed with lysis buffer containing 50 mM Tris-HCl, pH 7.5, 15% glycerol, 0.1 mM EGTA, 1 mM EDTA, 0.5 mM DTT, […] PMSF, 50 μg/ml soybean trypsin inhibitor, 5 μg/ml aprotinin, 5 μg/ml leupeptin. Aliquots of 8×10^6 cells per 50 μl of lysis buffer were frozen until further analysis.
The phosphatase assay is a modified version of a previously described procedure (Manalan and Klee, 1983; Liu, 1991). The reaction mixture (total volume 60 μl) contained 50 mM MES (pH6.0), 100 mM NaCl, 6 mM Mg(OAc)2, […], […] (Fraction V), […] okadaic acid (Calbiochem), […] [^33P] RII peptide (600 cpm/pmole), and T cell or brain extract. […] of the terminated reaction mixture was applied per well, washed and counted in a Top-Count scintillation counter (Packard Instrument Co.). […]
Residual calcineurin activity, (i.e., okadaic acid resistant and EGTA-sensitive phosphatase activity) was measured in the same CNAα^−/− T cell extracts (Martin and Wiederrecht, in press). […]

[2] = system: T cells; assay: Mitogenic stimulation of T cells: proliferation and IL-2 and IL-4 production, drug sensitivity; type: cell-based, mouse
Description: We tested the responses of the wild type and mutant T cells to mitogenic stimulation with phorbol 12-myristate 13 acetate (PMA) plus ionomycin, concanavalin A (ConA), and anti-CD3ε antibodies. All three mitogens induced the CNAα^−/− T cells to proliferate as rapidly as the wild type T-cells. Further, stimulated mutant and wild type T cells produced the same amounts of IL-2 and IL-4 and expressed normal level of IL-2 receptor on the surface. Thus, CNAα^−/− T cells appeared to be functional when stimulated by mitogens in vitro.
We tested the drug sensitivity of the CNAα^−/− T cells. […] CNA^−/− T cells were even more sensitive to these drugs than normal T cells, with a IC50 of 2-7 fold lower than that of the wild type T cells.

FK506
inhibition of (residual) calcineurin phosphatase activity ([1]; CNAα−/− mutant T cell extracts): 90-95% | inhibition of calcineurin phosphatase activity ([1]; wild type T cell extracts): 90-95% | proliferation and lymphokine production of CNAα−/− T cells, inhibitability ([2]; CNAα−/− T cells): fully inhibitable | inhibition of T cells as measured by proliferation and by IL-2 and IL-4 production ([2]; CNAα−/− and wild type T cells stimulated with PMA plus ionomycin, ConA, or αCD3ε antibody): inhibited
